Tested on: B16 mouse melanoma cells
Experiment: B16 inhibition assay (melanin synthesis, normalized to MTT cell viability)
Type: cell-based
Conditions: 7 days
Procedure: The B16 assay uses a cell line derived from mice with inhibition of tyrosinase as the end point. For the B16 assay, the active oxobutanoic acid tyrosinase inhibitors as disclosed herein in Table 1 were tested in a monolayer cell culture of B16 mouse melanoma cells. These cells are known to constitutively produce melanin and are a commonly utilized and accepted model system for monitoring the inhibition of melanin synthesis.
The B16 mouse melanoma cells were seeded (ATCC, cat. #: CRL-6475) into 96-well tissue culture-treated plates (BD Falcon) and treated with test actives diluted in DMEM without phenol red (Mediatech; cat. #: 17-205-CV) and examined for their ability to modulate pigment formation. Kojic acid was used as the positive control inhibitor. Cells were exposed to diluted test material or controls for 7 days. Following the treatment period, the level of pigment produced or melanin synthesized was quantified by reading the absorbance at 540 nm using a standard microplate reader (Tecan Group Ltd.).
After quantifying the amount of melanin, cell viability was determined using the MTT conversion method. The MTT conversion method measures the reduction of the MTT dye from a yellow colored, water-soluble, tetrazolium salt to a bluish-purple colored insoluble formazan precipitate by NAD(P)H-dependent microsomal dehydrogenase enzymes, which only function in viable cells. The intensity of the blue color is indicative of cell viability. After quantifying the amount of melanin pigment produced, the cells were exposed to MTT dye solution (1 mg/ml) for two to three hours. Formazan material was solubilized with reagent alcohol (95% ethanol: 5% isopropanol) and shaken on an orbital shaker for 15-30 minutes. MTT dye uptake and conversion by viable cells were determined by measuring the extracted formazan at 570 nm using a microplate reader. Total pigmentation was calculated, normalized to cell viability values and expressed as percent activity relative to control. The compounds A-H of Table 1 in a weight percent ranging from about 0.0002% to about 0.002% inhibited tyrosinase by a percent ranging from about 29% to about 87%. […]

SMILES	B16 Results Percent inhibition of melanin (concentration 0.0001%) [%]	B16 Results Percent inhibition of melanin (concentration 0.001%) [%]
Cc1ccc(C(=O)CC(NCc2ccco2)C(=O)O)cc1 (stereo not drawn) [I, 2-(2-furanylmethylamino)-4-(4′-methylphenyl)-4-oxobutanoic acid]	−20	−71
COc1ccc(C(=O)CC(NCc2cccnc2)C(=O)O)cc1 (stereo not drawn) [J, 2-(3-pyridylmethylamino)-4-(4′-methoxyphenyl)-4-oxobutanoic acid]	−27.84	−53.63
Cc1ccc(C(=O)CC(NCc2ccccc2)C(=O)O)cc1 (stereo not drawn) [K, 2-(benzylamino)-4-(4′-methylphenyl)-4-oxobutanoic acid]	−46	−67

Source: patent publication US8329149B2, “Topical lightening composition and uses thereof” (Avon Products, Inc., priority 2009, dated 2012)
